Source: patent publication US20260315487A1, “IKK-ALPHA INHIBITORS” (Cancer Research Technology Limited, priority 2023, published 2026)

Columns and labels:
IKKα = molecular target: T1, IKKα (Homo sapiens, UniProt O15111); assay: in-house DELFIA kinase assay, IKKα; type: biochemical
T1 sequence (O15111 1-745): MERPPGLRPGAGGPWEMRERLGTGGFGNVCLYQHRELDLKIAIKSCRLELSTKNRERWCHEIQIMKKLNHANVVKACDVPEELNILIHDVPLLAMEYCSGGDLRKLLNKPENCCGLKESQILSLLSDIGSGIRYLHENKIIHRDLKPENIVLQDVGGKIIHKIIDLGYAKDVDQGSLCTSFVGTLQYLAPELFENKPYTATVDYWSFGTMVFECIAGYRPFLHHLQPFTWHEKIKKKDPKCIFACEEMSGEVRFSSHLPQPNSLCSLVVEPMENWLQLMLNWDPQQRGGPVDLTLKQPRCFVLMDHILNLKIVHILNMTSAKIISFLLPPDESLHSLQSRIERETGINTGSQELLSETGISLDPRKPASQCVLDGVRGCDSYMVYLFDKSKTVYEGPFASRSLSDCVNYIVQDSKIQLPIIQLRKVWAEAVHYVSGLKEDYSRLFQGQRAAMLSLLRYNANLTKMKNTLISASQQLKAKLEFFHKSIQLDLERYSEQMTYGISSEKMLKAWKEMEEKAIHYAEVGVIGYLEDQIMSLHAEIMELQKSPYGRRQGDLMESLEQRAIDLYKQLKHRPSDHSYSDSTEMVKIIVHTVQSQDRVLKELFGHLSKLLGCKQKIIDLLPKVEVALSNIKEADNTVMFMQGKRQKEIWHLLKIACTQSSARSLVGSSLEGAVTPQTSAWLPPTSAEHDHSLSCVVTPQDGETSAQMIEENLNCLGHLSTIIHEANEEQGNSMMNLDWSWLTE

MKK7 P = molecular target: T2, MKK7 P (Homo sapiens, UniProt O14733); assay: kinome profiling at 1 μM, MKK7; type: biochemical
T2 sequence (O14733 1-419): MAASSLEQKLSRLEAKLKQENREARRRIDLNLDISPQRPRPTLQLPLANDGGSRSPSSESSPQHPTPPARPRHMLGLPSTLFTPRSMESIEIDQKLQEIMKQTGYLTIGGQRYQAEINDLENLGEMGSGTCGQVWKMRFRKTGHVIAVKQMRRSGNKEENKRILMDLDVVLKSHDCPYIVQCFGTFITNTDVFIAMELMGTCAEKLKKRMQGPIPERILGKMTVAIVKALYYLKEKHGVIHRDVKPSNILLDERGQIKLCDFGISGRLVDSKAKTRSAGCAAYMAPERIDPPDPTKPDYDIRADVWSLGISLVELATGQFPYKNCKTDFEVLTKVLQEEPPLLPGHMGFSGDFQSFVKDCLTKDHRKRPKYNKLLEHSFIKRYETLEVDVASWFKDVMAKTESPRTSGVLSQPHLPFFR
From the text: We profiled three compounds from the series across the kinome (FIG. 11). […] To identify the structural drivers for CDK inhibition, we obtained X-ray crystal structures of 5 y and 6 g SU1336 and SU1349 with CDK-2 (FIG. 12A) to potentially identify possible routes towards introducing selectivity for IKKα over the CDK enzymes as well as IKKβ. […] All three derivatives form complexes with CDK2 with the pyrrolo[2,3 -b]pyridine H-bonding to GK+3 (Leu 83 ) and the aminoindazole projected towards the G-loop (FIG. 12A), forming H-bonds with Glu 51 and Lys 33 at the back of the pocket. The adoption of the 4 SU1253 -type orientation, rather than the flipped pose observed in IKKα, is probably facilitated by Tr-stacking between the aminoindazole and the GK residue, which in the CDKs is Phe, rather than Met. […] For 6 g SU1349, the hydrophobic pendant benzyloxy group points out into solvent, but can form face-to-edge Tr-Tr interactions with Phe 82 and His 84 from the hinge. Exchanging the hydrophobic pendant benzyloxy group for the morpholinoethyl-containing substituent in 5 y SU1336 removes any direct interaction with these hinge residues, preferring to sit in a more solvent-exposed position, as befits a basic side chain that will be protonated at physiological pH (FIG. 12B).

mouse hepatocytes = assay: mouse hepatocyte clearance (cryopreserved pooled mouse CD1 hepatocytes); type: in vitro ADME; settings: mouse hepatocytes
Protocol: Pharmacokinetic studies were contracted to Sygnature Discovery Limited. Intrinsic clearance and half life were determined using cryopreserved pooled mouse CD1 hepatocytes. Test compounds were analysed at 1 μM in Williams Media E buffer (0.01 % DMSO) at a cell density of 0.5×10^6 cells mL^−1 . Cells were incubated at 37° C. for one hour with shaking and compound depletion was measured by LC-MS/MS at six timepoints (0.25, 5, 10, 20, 40, and 60 minutes).

Row | Ki (IKKα) [µM] | inhibition at 1 µM (MKK7 P; read-out: % inhibition of MKK7) [%] | SMILES | off-target inhibition of MKK7, in words (MKK7 P; 1 μM, compared with 5r SU1261) | in vitro murine clearance, in words (mouse hepatocytes)
1 | 0.01 | > 80 | Nc1n[nH]c2ccc(-c3ccnc4[nH]c(-c5cccc(OCc6ccccc6)c5)cc34)cc12 [5r SU1261, 5-(2-(3-(benzyloxy)phenyl)-1 H-pyrrolo[2,3-b]pyridin-4-yl)-1 H-indazol-3-amine] |  | 
2 | 0.016 |  | Nc1n[nH]c2ccc(-c3ccnc4[nH]c(-c5ccnc(OCc6ccccc6)c5)cc34)cc12 [6g SU1349, 5-(2-(2-(Benzyloxy)pyridin-4-yl)-1 H-pyrrolo[2,3-b]pyridin-4-yl)-1 H-indazol-3-amine] | significantly reduced off-target inhibition | sufficiently low in vitro murine clearance
